Tests used:
rat α9CC/SSα10 receptor = rat α9CC/SSα10 receptor (Rattus norvegicus, UniProt P43144+Q9JLB5, C219S/C220S); assay: ACh-evoked currents, two-electrode voltage clamp in Xenopus laevis oocytes; type: cell-based
Text: (§1) cDNAs encoding Gallus gallus (chick) or Rattus norvegicus (rat) α9 and α10 nAChR subunits were subcloned into a modified pGEMHE vector for expression studies in Xenopus laevis oocytes. Capped cRNAs were in vitro transcribed from linearized plasmid DNA templates using RiboMAX Large Scale RNA Production System (Promega, Madison, WI). Mutant subunits were produced using Quick Change XL II kit (Stratagene, La Jolla, CA). Amino acid sequences of rat and chicken α9, α10, and Torpedo α1 subunits were aligned using ClustalW (EMBL-EBI, Wellcome Genome Campus, Hinxton, Cambridgeshire). Residues were numbered according to the corresponding Torpedo α1 subunit mature protein ([Karlin, 2002]).
(§2) The maintenance of Xenopus laevis and the preparation and cRNA injection of stage V and VI oocytes have been described in detail elsewhere ([Verbitsky et al., 2000]). Typically, oocytes were injected with 50 nl of RNase-free water containing 0.01–1.0 ng of cRNA (at a 1:1 molar ratio when pairwise combined) and maintained in Barth’s solution at 18°C. Electrophysiological recordings were performed 2–6 days after cRNA injection under two-electrode voltage clamp with an Oocyte Clamp OC-725B or C amplifier (Warner Instruments Corp., Hamden, CT). Recordings were filtered at a corner frequency of 10 Hz using a 900BT Tunable Active Filter (Frequency Devices Inc., Ottawa, IL). Data acquisition was performed using a Patch Panel PP-50 LAB/1 interface (Warner Instruments Corp.) at a rate of 10 points per second. Both voltage and current electrodes were filled with 3 M KCl and had resistances of ∼1 MΩ. Data were analyzed using Clampfit from the pClamp 6.1 software (Molecular Devices, Sunnyvale, CA). During electrophysiological recordings, oocytes were continuously superfused (∼15 ml/min) with normal frog saline composed of: 115 mM NaCl, 2.5 mM KCl, 1.8 mM CaCl2, and 10 mM HEPES buffer, pH 7.2. […] Unless otherwise indicated, the membrane potential was clamped to −70 mV. To minimize activation of the endogenous Ca^2+ sensitive chloride current ([Elgoyhen et al., 2001]), all experiments were performed in oocytes incubated with the Ca^2+ chelator 1,2-bis(2-aminophenoxy)ethane-N,N,N′,N′-tetraacetic acid (acetoxymethyl ester) (100 µM) for 3 hours before electrophysiological recordings.
(§3) Concentration-response curves were normalized to the maximal agonist response in each oocyte. The mean and S.E.M. values of the responses are represented. Agonist concentration-response curves were iteratively fitted, using Prism 5 software (GraphPad Software Inc., La Jolla, CA), with the equation: I/Imax = A^nH/(A^nH + EC50^nH), where I is the peak inward current evoked by the agonist at concentration A; Imax is the current evoked by the concentration of the agonist eliciting a maximal response; EC50 is the concentration of the agonist inducing a half-maximal current response; and nH is the Hill coefficient. Data were analyzed using Clampfit from the pClamp 6.1 software.

[1] = biological target: rat α9CC/SSα10CC/SS receptor (Rattus norvegicus, UniProt P43144+Q9JLB5, C218S/C219S/C220S); assay: as above; type: cell-based
Text: as §1, §2, §3

rat α9W55Tα10 receptor = rat α9W55Tα10 receptor (Rattus norvegicus, UniProt P43144+Q9JLB5, W82T); assay: as above; type: cell-based
Text: as §1, §2, §3

[2] = biological target: T1, α9χα10χ (α9 and α10 extracellular domains fused to 5-HT3A) (UniProt P23979+P43144+Q9JLB5, L231I/L232I); assay: [3H]-α-BTX radioligand binding, membranes of transfected tsA201 cells; set-up: species or system rat; details: ACh 1 mM alone vs standard mixture of nonradioactive ligands
T1 construct: the extracellular N-terminal domain of the α9 or α10 subunit; expressed in transfected cells; host or cells: tsA201 cells (HEK293-derived), membrane preparation
Method: (§4) Chimeric subunit cDNAs containing the extracellular N-terminal domain of the α9 or α10 subunit fused to the transmembrane and intracellular domain of the mouse 5-HT3A subunit have been described previously ([Baker et al., 2004]). The mammalian cell line tsA201 (derived from the human embryonic kidney 293 cell line) was obtained from Dr. William Green (University of Chicago, Chicago). Cells were cultured in Dulbecco’s modified Eagle’s medium (Invitrogen, Paisley, United Kingdom) containing 2 mM L-GlutaMAX (Invitrogen) plus 10% heat-inactivated fetal calf serum (Sigma, Poole, United Kingdom) with penicillin (100 U/ml) and streptomycin (100 µg/ml) and were maintained in a humidified incubator containing 5% CO2 at 37°C. Cells were transiently transfected using Effectene transfection reagent (QIAGEN, Crawley, United Kingdom) according to the manufacturer’s instructions. In all cases, cells were transfected overnight and assayed for expression approximately 40–48 hours after transfection. To ensure that the levels of radioligand binding were not influenced by differences in the amount of subunit cDNA expressed, the amount of each subunit plasmid DNA and also the total amount of plasmid DNA were kept constant when subunits were expressed singly and in combination. This was achieved by the inclusion of empty plasmid expression vector when single subunits were transfected.
(§5) Binding studies with [^3H]-α-bungarotoxin (α-BTX) in cell membrane preparations were performed essentially as described previously ([Lansdell and Millar, 2000]; [Harkness and Millar, 2002]). Membranes (typically, 10–100 µg of protein) were incubated with radioligand (final concentration 20 nM) for 150 minutes at 4°C in a total volume of 300 µl in the presence of protease inhibitors leupeptin (2 µg/ml) and pepstatin (1 µg/ml). Our standard protocol for determining nonspecific binding was the addition of 1 mM carbachol, 1 mM nicotine, and 10 µM methyllycaconitine to triplicate samples. […] In all cases the levels of specific binding were determined by subtracting the level of nonspecific binding from the total binding (both of which were determined in triplicate). The data were determined as means of three independent experiments, each performed in triplicate. Radioligand binding was assayed by filtration onto 0.5% polyethylenimine-presoaked Whatman GF/B filters (Sigma-Aldrich, Dorset, England) followed by rapid washing (typically, five washes, each of 4 ml) with ice-cold 10 mM phosphate buffer using a Brandel cell harvester, and radioactivity was determined by scintillation counting. […] Protein concentrations were determined using bovine serum albumin standards (Bio-Rad, Hercules, CA).

α9χα10χW55T = biological target: T2, α9χα10χW55T (UniProt P23979+P43144+Q9JLB5, L231I/L232I/W81T); assay: as above; set-up: species or system rat; details: ACh 1 mM alone vs standard mixture of nonradioactive ligands
T2 construct: containing the extracellular N-terminal domain of the α9 or α10 subunit fused to the transmembrane and intracellular domain of the mouse 5-HT3A subunit; mouse 5-HT3A subunit transmembrane and intracellular domain (fusion partner); expressed in transfected cells; host or cells: tsA201 (derived from human embryonic kidney 293), transient transfection; membrane preparations
Method: as §4, §5

[3] = system: Aplysia californica AChBP, CC mutant; details: does not abolish ACh binding; ref Hansen and Taylor, 2007; cited from earlier work

T1 sequence (P23979 whole entry, looked up, the tested form may be a part): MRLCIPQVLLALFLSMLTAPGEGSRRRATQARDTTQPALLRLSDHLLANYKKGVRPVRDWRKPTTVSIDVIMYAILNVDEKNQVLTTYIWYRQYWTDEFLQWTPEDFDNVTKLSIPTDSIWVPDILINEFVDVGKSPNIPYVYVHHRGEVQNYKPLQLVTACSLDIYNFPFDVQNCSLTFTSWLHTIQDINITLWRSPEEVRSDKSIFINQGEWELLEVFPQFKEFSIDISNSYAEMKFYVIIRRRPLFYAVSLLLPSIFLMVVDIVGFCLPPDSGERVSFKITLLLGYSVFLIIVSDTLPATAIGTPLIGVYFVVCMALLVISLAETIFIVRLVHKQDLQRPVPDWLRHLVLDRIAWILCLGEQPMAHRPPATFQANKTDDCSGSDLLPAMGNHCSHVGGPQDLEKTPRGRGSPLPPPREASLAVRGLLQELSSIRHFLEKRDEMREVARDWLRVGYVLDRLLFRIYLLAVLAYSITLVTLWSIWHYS
T1 sequence (P43144 whole entry, looked up, stated change not applied, the tested form may be a part): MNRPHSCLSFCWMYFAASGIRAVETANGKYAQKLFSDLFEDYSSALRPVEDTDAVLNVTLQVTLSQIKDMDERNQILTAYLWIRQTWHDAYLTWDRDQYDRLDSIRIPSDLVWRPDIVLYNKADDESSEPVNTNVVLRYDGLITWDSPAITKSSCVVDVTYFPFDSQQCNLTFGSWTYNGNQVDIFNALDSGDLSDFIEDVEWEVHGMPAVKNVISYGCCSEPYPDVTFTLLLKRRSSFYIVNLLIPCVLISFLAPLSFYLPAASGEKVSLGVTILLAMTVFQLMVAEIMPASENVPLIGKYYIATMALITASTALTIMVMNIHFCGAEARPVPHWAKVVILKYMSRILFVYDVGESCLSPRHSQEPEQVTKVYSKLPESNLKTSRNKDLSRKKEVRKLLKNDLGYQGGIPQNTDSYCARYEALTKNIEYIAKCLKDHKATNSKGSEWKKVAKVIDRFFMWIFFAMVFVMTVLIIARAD
T1 sequence (Q9JLB5 whole entry, looked up, stated change not applied, the tested form may be a part): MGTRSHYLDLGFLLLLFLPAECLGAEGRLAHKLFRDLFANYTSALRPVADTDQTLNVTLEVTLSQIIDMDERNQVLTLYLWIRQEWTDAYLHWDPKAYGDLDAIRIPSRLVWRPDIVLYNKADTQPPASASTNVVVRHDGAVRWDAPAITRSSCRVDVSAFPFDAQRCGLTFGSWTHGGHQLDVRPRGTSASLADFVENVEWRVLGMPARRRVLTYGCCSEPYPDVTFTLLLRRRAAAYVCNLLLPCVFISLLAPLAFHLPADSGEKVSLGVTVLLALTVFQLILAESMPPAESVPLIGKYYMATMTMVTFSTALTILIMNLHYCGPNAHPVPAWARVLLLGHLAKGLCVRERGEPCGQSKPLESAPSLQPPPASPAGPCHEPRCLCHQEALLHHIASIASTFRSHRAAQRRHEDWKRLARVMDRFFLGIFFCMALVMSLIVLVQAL
T2 sequence (P23979 whole entry, looked up, stated change not applied, the tested form may be a part): as the sequence (P23979 whole entry, looked up, the tested form may be a part) above
T2 sequence (P43144 whole entry, looked up, stated change not applied, the tested form may be a part): as the sequence (P43144 whole entry, looked up, stated change not applied, the tested form may be a part) above
T2 sequence (Q9JLB5 whole entry, looked up, stated change not applied, the tested form may be a part): as the sequence (Q9JLB5 whole entry, looked up, stated change not applied, the tested form may be a part) above
rat α9CC/SSα10 receptor, sequence (P43144 26-479 C219S/C220S): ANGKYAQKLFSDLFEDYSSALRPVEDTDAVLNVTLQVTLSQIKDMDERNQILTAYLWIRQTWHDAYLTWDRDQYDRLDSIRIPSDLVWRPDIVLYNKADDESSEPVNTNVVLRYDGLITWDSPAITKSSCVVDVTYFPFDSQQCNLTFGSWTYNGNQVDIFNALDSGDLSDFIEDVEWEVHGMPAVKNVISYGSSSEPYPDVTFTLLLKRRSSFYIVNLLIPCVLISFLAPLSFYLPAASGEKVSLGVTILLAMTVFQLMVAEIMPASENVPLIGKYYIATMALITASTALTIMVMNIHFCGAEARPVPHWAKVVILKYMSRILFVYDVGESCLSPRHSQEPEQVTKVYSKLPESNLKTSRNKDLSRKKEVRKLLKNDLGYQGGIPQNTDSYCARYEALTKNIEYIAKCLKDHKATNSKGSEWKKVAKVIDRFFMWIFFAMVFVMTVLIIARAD
rat α9CC/SSα10 receptor, sequence (Q9JLB5 25-447, stated change not applied): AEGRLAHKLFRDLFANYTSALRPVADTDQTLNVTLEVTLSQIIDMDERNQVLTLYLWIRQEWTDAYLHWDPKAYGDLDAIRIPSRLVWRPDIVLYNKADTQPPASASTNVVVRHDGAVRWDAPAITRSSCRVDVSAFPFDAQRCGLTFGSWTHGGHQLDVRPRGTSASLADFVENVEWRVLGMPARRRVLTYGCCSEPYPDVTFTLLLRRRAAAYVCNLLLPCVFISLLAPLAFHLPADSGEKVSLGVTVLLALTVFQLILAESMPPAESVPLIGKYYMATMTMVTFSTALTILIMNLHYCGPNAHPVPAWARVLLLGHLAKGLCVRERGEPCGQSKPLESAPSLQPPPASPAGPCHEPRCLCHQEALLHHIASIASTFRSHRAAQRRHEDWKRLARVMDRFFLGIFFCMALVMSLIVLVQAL
rat α9CC/SSα10CC/SS receptor, sequence (P43144 26-479 C219S/C220S): as the sequence (P43144 26-479 C219S/C220S) above
rat α9CC/SSα10CC/SS receptor, sequence (Q9JLB5 25-447 C218S/C219S): as the sequence (Q9JLB5 25-447, stated change not applied) above, with C194S, C195S counted along it
rat α9W55Tα10 receptor, sequence (P43144 26-479 W82T): as the sequence (P43144 26-479 C219S/C220S) above, with W57T, S194C, S195C counted along it
rat α9W55Tα10 receptor, sequence (Q9JLB5 25-447): as the sequence (Q9JLB5 25-447, stated change not applied) above

## CC(=O)OCC[N+](C)(C)C [ACh, acetylcholine]
Rat α9CC/SSα10 receptor
  Imax (maximal evoked current): 402 ± 103 nA
[1]
  Imax (maximal evoked current): 360 ± 119 nA
Rat α9W55Tα10 receptor
  Imax (maximal evoked current): 42 ± 4 nA
[2]
  Displacement of bound [3H]-α-BTX by ACh: displaced as efficiently with ACh alone as with our standard mixture of nonradioactive competing ligands
α9χα10χW55T
  Displacement of bound [3H]-α-BTX by ACh: displaced as efficiently with ACh alone as with our standard mixture of nonradioactive competing ligands
[3]
  Decrease in affinity on mutation of the CC: 10 fold
